Laboratory results: paper PMC8960621, “Solution speciation and human serum protein binding of indium(III) complexes of 8-hydroxyquinoline, deferiprone and maltol” (Journal of Biological Inorganic Chemistry, 2022)
Several values for one entry are separate records, joined by “and”; a condition that tells them apart may be missing. Identical values can stand only once.

Assays:
[1] = biological target: T1, HSA (Homo sapiens, UniProt P02768); test: Fluorescence lifetime (TCSPC) of the complexes in the presence of HSA; assay type: binding; settings: additional lifetime component in the presence of HSA (2–10 μM), 10 μM complex, pH 7.40
T1 construct: purchased Sigma-Aldrich A8763
Protocol: The fluorescence lifetime of InQ3 was determined in the absence and presence of HSA. […] GaQ3 behaves similarly (Table 2), while lifetimes of InD3 were too short (τ ≤ 0.2 ns) for accurate determination with our instrument. By the addition of HSA to the complex, two additional lifetime components appeared for InQ3: τ3 = 5.7 ± 0.3 ns and τ4 = 13.8 ± 0.6 ns, which correspond to the HSA bound forms. […] The GaQ3 ‒ HSA system could be characterized with similar lifetime parameters (Table 2).
Fluorescence lifetime was measured on the same fluorometer equipped with a DeltaHub time-correlated single photon counting (TCSPC) controller applying NanoLED light sources N-300 (λmax = 300 nm) and N-350 (λmax = 355 nm) (Horiba Jobin Yvon). The background (obtained with blank samples) was subtracted from the decay of the samples. The program DAS6 (version 6.6.; Horiba, Jobin Yvon) was used for the analysis of the experimental fluorescence decays. The fluorescence intensity decay over time is described by a sum of exponentials,1 It=∑i=1nαiexp-t/τi where αi and τi are the normalized amplitude and lifetime of component i respectively. The quality of the fit was judged from a χ^2R value close to 1.0 and a random distribution of weighted residuals.

[2] = Speciation in threefold diluted human blood serum by UV-vis; assay type: in vitro ADME; settings: 10 µM complex
Source text: With this knowledge, samples prepared in blood serum were studied by UV–vis spectrometry to count the significance of HMM and LMM serum components in the speciation of the complexes (Figs. 9 and S8). Unfortunately, fluorescence spectra could not be recorded due to the significant light scattering of the samples. […] UV–vis spectra in Fig. 9 resemble the behaviour observed for the complex – HSA – Tf ternary systems (Fig. S7) with some important differences. […] This refers to the altered coordination sphere of the metal complex. […] Keeping in mind the difficulties of interpretation of UV–vis spectroscopic data obtained in complex matrices, some assumptions can be made relying on the results of binary and ternary systems. Significant Tf binding of In(III) in blood serum is likely, while GaQ3 interacts less with this protein. […] Formation of HQ – Mg(II) complex is not feasible even at physiological Mg(II) ion levels (0.7–1.0 mM) based on the available stability constants. Zn(II) ion forms higher stability complexes with HQ as Mg(II) and could compete for HQ with In(III) or Ga(III) if its total blood plasma concentration (10–28 μM) would be freely available. […]
For (apo)Tf containing samples, complex concentrations were 20 μM and 0–2.5 equiv. protein was added. Reference spectra for the complexes, ligands and protein were recorded as well. […]

[3] = biological target: T2, human serum albumin (HSA) (Homo sapiens, UniProt P02768); test: HSA binding by steady-state spectrofluorometry (complex fluorescence and Trp-214 quenching)
T2 construct: purchased Sigma-Aldrich A8763
Source text: The effect of HSA on the intrinsic fluorescence of InQ3 and InD3 was studied. Similarly to GaQ3 and tris(8-hydroxy-quinolinato)Al(III), InQ3 and InD3 are also fluorescent metal complexes (see Table 2 for λmax values). […] The fluorescence intensity of InQ3 increased in the presence of HSA, and emission intensity values measured at 530 nm show a saturation character plotted against the added HSA equivalents. […] At the same time, UV–vis absorbance spectra of InQ3 are only slightly altered by the binding interaction. Enhanced fluorescence of InQ3, and fast binding kinetics confirm the binding of the non-dissociated metal complex to the protein via intermolecular interactions. Fluorometric data can be excellently fitted with the computer program PSEQUAD [43] assuming a single site model (see Fig. 3), and a conditional binding constant of log K′ = 5.0 ± 0.1 was calculated for the HSA – InQ3 adduct. This constant indicates a moderate affinity of the complex on HSA.
Binding at the site I hydrophobic pocket of HSA can be followed via the selective excitation (λEX = 295 nm) of the single Trp (Trp-214) located close to this site. Trp-214 is sensitive to the binding events taking place at or near this site. The InQ3 complex quenched effectively the fluorescence of HSA, and a quenching constant (K’Q) could be computed based on the measured spectra: log K’Q = 5.1 ± 0.1.
Fluorescence studies were implemented by a Fluoromax (Horiba Jobin Yvon) fluorometer in 1 cm quartz cells. Samples contained 1 μM HSA or (apo)Tf and various protein-to-metal complex (or InCl3) ratios (up to complex/HSA = 1:30) were used. The excitation wavelength was 295 nm and 280 nm for HSA and Tf binding studies, respectively; emission intensity was registered between 300 and 450 nm. Intrinsic fluorescence of complex InQ3 was also followed at λEX = 367 nm, and λEM = 450 – 650 nm. In this setup, the complex concentration was ca. 10 or 20 μM, and protein (HSA, (apo)Tf) concentration was varied between 0 and 130 μM, and residual fluorescence of the proteins were subtracted if it was necessary. […] Computer program PSEQUAD [43] was utilized for the calculation of binding constants (K’) for HSA – InQ3 adducts similar to the approach described in our former works. Calculations were always based on data obtained from at least two independent measurements.

T1 sequence (P02768 25-609): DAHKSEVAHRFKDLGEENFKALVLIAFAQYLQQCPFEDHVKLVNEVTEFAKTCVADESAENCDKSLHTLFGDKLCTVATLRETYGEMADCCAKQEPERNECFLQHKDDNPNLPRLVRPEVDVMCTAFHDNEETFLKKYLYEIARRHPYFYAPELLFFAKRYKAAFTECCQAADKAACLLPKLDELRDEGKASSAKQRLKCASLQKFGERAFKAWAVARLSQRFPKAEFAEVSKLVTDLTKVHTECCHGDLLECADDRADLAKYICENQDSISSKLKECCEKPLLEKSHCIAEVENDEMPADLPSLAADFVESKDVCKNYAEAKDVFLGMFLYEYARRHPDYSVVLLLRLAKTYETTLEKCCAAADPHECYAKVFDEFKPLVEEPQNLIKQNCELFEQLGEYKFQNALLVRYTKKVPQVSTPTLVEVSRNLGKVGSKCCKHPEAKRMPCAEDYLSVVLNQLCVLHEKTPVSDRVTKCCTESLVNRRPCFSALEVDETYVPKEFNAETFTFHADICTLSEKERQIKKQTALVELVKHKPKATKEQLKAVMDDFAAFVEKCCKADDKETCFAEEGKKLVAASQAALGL
T2 sequence (P02768 25-609): as above

SMILES	τ3 [1]	τ4 [1]	time to reach chemical equilibrium in serum [2]	binding on HSA (fluorescence intensities additive) ([3]; fluorometry, pH 7.40)	log K’Q (quenching constant) ([3]; Trp-214 quenching, λEX = 295 nm, pH 7.40)	time of the interaction with HSA ([3]; fluorometry)	log K′ (conditional binding constant, HSA adduct) ([3]; fluorometry of the complex, single site model, pH 7.40, 25 °C)
[Ga+3].[O-]c1cccc2cccnc12.[O-]c1cccc2cccnc12.[O-]c1cccc2cccnc12 [GaQ3, Tris(8-Quinolinolato)gallium(III), reference compound]	5.0 ± 0.3 ns	14.0 ± 0.2 ns	≤ 10 min				
Cc1c([O-])c(=O)ccn1C.Cc1c([O-])c(=O)ccn1C.Cc1c([O-])c(=O)ccn1C.[In+3] [InD3]				no considerable binding			
[In+3].[O-]c1cccc2cccnc12.[O-]c1cccc2cccnc12.[O-]c1cccc2cccnc12 [InQ3, Tris(8-Quinolinolato)indium(III)]	5.7 ns and 5.7 ± 0.3 ns	13.8 ns and 13.8 ± 0.6 ns	240 min		5.1 ± 0.1	within a few seconds	5.0–5.1 and 5.0 ± 0.1
